Where a SMILES comes first, the peptide text is derived from it. The star is where a group is joined. Cbz = O=C(OCc1ccccc1)*; CH2F = FC*
How the values were obtained:
[1] = tested on: antigen stimulated OT-1 cells; experiment: Antigen-induced cytoplasmic and mitochondrial ROS by CM-H2DCFDA and MitoSox staining and flow cytometry; type: cell-based, mice
Experimental: Naïve or resting CD8+ T cells obtained from OT-1 PL Rag−/− TCR transgenic mice were stimulated in vitro with its cognate antigen in the presence of B7.1 co-stimulatory molecule, and cytokine IL-12 for 48h. The antigen constitutes sulfate latex microspheres (Life Technologies Cat. No. S37227) bearing DimerX Ig-recombinant dimeric mouse H-2Kb: Ig fusion protein (BD Biosciences, Cat. No. 550750) with recombinant mouse B7-1/CD80 Fc chimeric protein (R&D Systems, Cat. No. 740-B). Short synthetic peptide SIINFEKL (SEQ ID NO:1) at 10 nM concentration (sequence derived from a chicken ovalbumin protein), presented by H-2Kb DimerX serves as the cognate antigen for TCR of CD8+ T cells from OT-1 PL Rag−/−TCR transgenic mice. CD8+ T cells isolated from lymph nodes and/or spleen were stimulated with antigen in the following culture medium: Glutamine-free RPMI (Corning CellGro, Cat. No. 15-040-CV) supplemented with FBS 10%, HEPES 10 mM, NEAA 1 mM, sodium pyruvate 1 mM, glutamine 2 mM, 2-mercaptoethanol 50 μM, and Pen/Strep. […] To determine whether UCP2 plays a role in antigen induced ROS generation and determine its impact on CD8+ T cell clonal expansion, antigen induced cytoplasmic (CROS) and/or mitochondrial ROS (mROS) production was evaluated by CM-H2DCFDA and MitoSox staining and flow cytometry analysis, respectively. […]

[2] = tested on: CD8+ T cells obtained from OT-1 PL Rag−/− TCR transgenic mice; experiment: Proliferation, clonal expansion and apoptosis of antigen-stimulated CD8+ T cells; type: cell-based
Experimental: (§1) Naïve or resting CD8+ T cells obtained from OT-1 PL Rag−/− TCR transgenic mice were stimulated in vitro with its cognate antigen in the presence of B7.1 co-stimulatory molecule, and cytokine IL-12 for 48h. The antigen constitutes sulfate latex microspheres (Life Technologies Cat. No. S37227) bearing DimerX Ig-recombinant dimeric mouse H-2Kb: Ig fusion protein (BD Biosciences, Cat. No. 550750) with recombinant mouse B7-1/CD80 Fc chimeric protein (R&D Systems, Cat. No. 740-B). Short synthetic peptide SIINFEKL (SEQ ID NO:1) at 10 nM concentration (sequence derived from a chicken ovalbumin protein), presented by H-2Kb DimerX serves as the cognate antigen for TCR of CD8+ T cells from OT-1 PL Rag−/−TCR transgenic mice. CD8+ T cells isolated from lymph nodes and/or spleen were stimulated with antigen in the following culture medium: Glutamine-free RPMI (Corning CellGro, Cat. No. 15-040-CV) supplemented with FBS 10%, HEPES 10 mM, NEAA 1 mM, sodium pyruvate 1 mM, glutamine 2 mM, 2-mercaptoethanol 50 μM, and Pen/Strep. T cells were cultured in flat-bottom 96-well plates at 2×105/0.2 ml/well with microspheres at the ratio of 5:1. Genipin was added at 50 μM concentration (based on dose titration that produces minimal cell death) and preincubated with cells for 45 mins before subjecting the CD8+ T cells to antigen stimulation. The CD8+ T cells are cultured and harvested at 4 hours to 48 hours for evaluation by molecular, physiologic and phenotypic characteristics by standard methodologies like flow cytometry based phenotyping, lysis for protein or mRNA derivation using western blot, PCR and metabolic flux analysis. Signal one was provided by MHC Class I (H-2Kb) dimers bearing 1-10 nM of OT-1 cognate peptide (SIINFEKL; SEQ ID NO:1) (Ag). Signal two was provided by 1 μg/ml of recombinant murine B7.1 (co-stimulation) immobilized on inert latex microspheres (serves as artificial antigen presenting cells) in the presence of the third signal; 2 ng/ml of rmIL-12 (cytokine). For antigen stimulation, the naïve T cells and latex microspheres were reacted at a ratio of 5:1 (T cells: microspheres) for various time points and were evaluated for their molecular, physiologic and phenotypic characteristics by standard methodologies including flow cytometry, western blot, PCR and metabolic flux analysis (FIG. 1). To determine whether UCP2 plays a role in antigen induced ROS generation and determine its impact on CD8+ T cell clonal expansion, antigen induced cytoplasmic (CROS) and/or mitochondrial ROS (mROS) production was evaluated by CM-H2DCFDA and MitoSox staining and flow cytometry analysis, respectively. Genetic (si-UCP2) or pharmacological (Genipin) means were used to block UCP2 function.

CD8+ T cells [3] = experiment: Metabolic flux analysis (ECAR/OCR, spare respiratory capacity) of antigen-stimulated CD8+ T cells; type: cell-based, mice; settings: antigen stimulation in the presence of Genipin, FIG. 4A
Experimental: Naïve or resting CD8+ T cells obtained from OT-1 PL Rag−/− TCR transgenic mice were stimulated in vitro with its cognate antigen in the presence of B7.1 co-stimulatory molecule, and cytokine IL-12 for 48h. The antigen constitutes sulfate latex microspheres (Life Technologies Cat. No. S37227) bearing DimerX Ig-recombinant dimeric mouse H-2Kb: Ig fusion protein (BD Biosciences, Cat. No. 550750) with recombinant mouse B7-1/CD80 Fc chimeric protein (R&D Systems, Cat. No. 740-B). Short synthetic peptide SIINFEKL (SEQ ID NO:1) at 10 nM concentration (sequence derived from a chicken ovalbumin protein), presented by H-2Kb DimerX serves as the cognate antigen for TCR of CD8+ T cells from OT-1 PL Rag−/−TCR transgenic mice. CD8+ T cells isolated from lymph nodes and/or spleen were stimulated with antigen in the following culture medium: Glutamine-free RPMI (Corning CellGro, Cat. No. 15-040-CV) supplemented with FBS 10%, HEPES 10 mM, NEAA 1 mM, sodium pyruvate 1 mM, glutamine 2 mM, 2-mercaptoethanol 50 μM, and Pen/Strep. […] For antigen stimulation, the naïve T cells and latex microspheres were reacted at a ratio of 5:1 (T cells: microspheres) for various time points and were evaluated for their molecular, physiologic and phenotypic characteristics by standard methodologies including flow cytometry, western blot, PCR and metabolic flux analysis (FIG. 1).

CD8+ T cells [4] = experiment: Phenotyping of effector differentiation markers and transcription factors in CD8+ T cells; type: cell-based, mice; settings: CD8+ T cells treated with Genipin
Experimental: as §1, with “1).” for “1). To determine whether UCP2 plays a role in antigen induced ROS generation and determine its impact on CD8+ T cell clonal expansion, antigen induced cytoplasmic (CROS) and/or mitochondrial ROS (mROS) production was evaluated by CM-H2DCFDA and MitoSox staining and flow cytometry analysis, respectively. Genetic (si-UCP2) or pharmacological (Genipin) means were used to block UCP2 function.”

CD8+ T cells [5] = experiment: Lipid content / de novo lipid synthesis in antigen-stimulated CD8+ T cells; type: cell-based, mice
Experimental: Naïve or resting CD8+ T cells obtained from OT-1 PL Rag−/− TCR transgenic mice were stimulated in vitro with its cognate antigen in the presence of B7.1 co-stimulatory molecule, and cytokine IL-12 for 48h. The antigen constitutes sulfate latex microspheres (Life Technologies Cat. No. S37227) bearing DimerX Ig-recombinant dimeric mouse H-2Kb: Ig fusion protein (BD Biosciences, Cat. No. 550750) with recombinant mouse B7-1/CD80 Fc chimeric protein (R&D Systems, Cat. No. 740-B). Short synthetic peptide SIINFEKL (SEQ ID NO:1) at 10 nM concentration (sequence derived from a chicken ovalbumin protein), presented by H-2Kb DimerX serves as the cognate antigen for TCR of CD8+ T cells from OT-1 PL Rag−/−TCR transgenic mice. CD8+ T cells isolated from lymph nodes and/or spleen were stimulated with antigen in the following culture medium: Glutamine-free RPMI (Corning CellGro, Cat. No. 15-040-CV) supplemented with FBS 10%, HEPES 10 mM, NEAA 1 mM, sodium pyruvate 1 mM, glutamine 2 mM, 2-mercaptoethanol 50 μM, and Pen/Strep. T cells were cultured in flat-bottom 96-well plates at 2×105/0.2 ml/well with microspheres at the ratio of 5:1. Genipin was added at 50 μM concentration (based on dose titration that produces minimal cell death) and preincubated with cells for 45 mins before subjecting the CD8+ T cells to antigen stimulation. […]

[6] = UCP2 inhibited OT-1 cells, FIG. 3C

## COC(=O)C1=CO[C@@H](O)[C@@H]2C(CO)=CC[C@H]12 [Genipin]
[1]; Genipin treated
  mitochondrial reactive oxygen species (ROS): increase
[2]; Genipin treated, 50 μM, FIG. 3A
  proliferation of activated CD8+ T cells: limited proliferation
[2]; Genipin treated, FIG. 3B
  apoptosis (contraction in clonal expansion): increased apoptosis
CD8+ T cells [3]
  ECAR/OCR ratio (glycolysis over mitochondrial respiration): higher
  spare respiratory capacity (SRC): very low
CD8+ T cells [4]
  PD-1 and Lag3 expression: increases
CD8+ T cells [4]; FIG. 5
  Blimp1/BC16 ratio: increasing
  Tbet/Eomes ratio: increasing
  expression of IFNγ, Gzmb, and effector cell markers KLRG1 and CXCR3: increased expression
CD8+ T cells [5]; antigen stimulation in the presence of Genipin, FIG. 4B
  lipid content (de novo lipid synthesis): increased lipid content

## CC1(C)CC(NC(=O)C[P+](c2ccccc2)(c2ccccc2)c2ccccc2)CC(C)(C)N1[O] [MitoTempo]
[1]; [6]
  mitochondrial ROS after quenching with mitochondrially targeted antioxidant: reverses ROS
[2]; [6]
  cell proliferation and cell contraction after quenching of mitochondrial ROS: restored

## CC(NC(=O)C(NC(=O)OCc1ccccc1)C(C)C)C(=O)NC(CC(=O)O)C(=O)CF (stereo not drawn) [ZVAD] (Cbz-Val-Ala-Asp-CH2F; configuration not given here)
[2]; added to Genipin treated cells, FIG. 3B
  Genipin-induced contraction in clonal expansion on addition of pan caspase inhibitor: can be reversed

## SML0068
CD8+ T cells [5]; UCP2 inhibited cells, FIG. 4D
  lipid synthesis on blocking cytoplasmic export of citrate from the mitochondria: reduced lipid synthesis

Reference: patent US11141432B2, “Materials and methods for increasing immune responses” (Mayo Foundation for Medical Education and Research, priority 2016, dated 2021)
